# In patent publication US6867185B2 (Bristol-Myers Squibb Company, priority 2001, dated 2005):
# pEC50, pIC50: −log10 of the molar value. Counter-ions that a name gives are not always drawn. Like-named read-outs stand apart in the source and are kept apart here.
# Columns and labels:
# [1] = biological target: T1, human neutrophil elastase (HNE) (Homo sapiens, UniProt P08246); assay: Specificity assay, human neutrophil elastase; type: biochemical; conditions: 2 hr pre-incubation, read-out: HLE
# T1 construct: purchased Sigma
# T1 sequence (P08246 30-267): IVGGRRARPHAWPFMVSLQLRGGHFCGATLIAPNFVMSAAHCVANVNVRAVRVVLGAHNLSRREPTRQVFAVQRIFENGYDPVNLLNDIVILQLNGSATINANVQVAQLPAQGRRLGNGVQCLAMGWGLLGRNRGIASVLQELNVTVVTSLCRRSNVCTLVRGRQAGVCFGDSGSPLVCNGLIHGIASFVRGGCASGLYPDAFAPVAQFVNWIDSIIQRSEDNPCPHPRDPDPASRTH
# Description: The specificities of compounds of the present invention were determined against a variety of serine proteases: human neutrophil elastase (HNE), porcine pancreatic elastase (PPE) and human pancreatic chymotrypsin and one cysteine protease: human liver cathepsin B. In all cases a 96-well plate format protocol using colorimetric p-nitroaniline (pNA) substrate specific for each enzyme was used as described previously (U.S. Pat. No. 6,323,180) with some modifications to the serine protease assays. All enzymes were purchased from Sigma while the substrates were from Bachem.
# Each assay included a 2 hr enzyme-inhibitor pre-incubation at RT followed by addition of substrate and hydrolysis to ˜30% conversion as measured on a Spectramax Pro microplate reader. Compound concentrations varied from 100 to 0.4 μM depending on their potency. […]
# The percentage of inhibition was calculated using the formula: [1−((UVinh−UVblank)/(UVctl−UVblank))]×100 […]
# [2] = tested on: HCV replicon in Huh7 cells; assay: HCV replicon cell-based assay (replicon FRET assay); design: species or system HCV strain 1B; conditions: Hepatitis C virus, Huh-7, HCV replicon cell assay
# Method in brief: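 Huh7 cells carrying a genotype 1b subgenomic replicon (neo, NS3–NS5B) were treated with compound for 4 days at 37 °C in 0.5% DMSO final. Lysates with 10 μM RET S1 FRET peptide and 150 mM NaCl were read kinetically at 340/490 nm over 21 cycles. EC50 was derived as for the enzyme IC50.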
smiles,measurement,setting,value
"COc1ccc2c(O[C@@H]3C[C@H]4C(=O)N[C@]5(C(=O)NS(=O)(=O)C6CC6)CC5/C=C/CCCC[C@H](N)C(=O)N4C3)cc(-c3ccccc3)nc2c1 (stereo partly drawn) [Compound 6, (1S,4R,6S,13S,17R)-7-trans-Cyclopropanesulfonic acid [13-amino-17-(7-methoxy-2-phenylquinolin-4-yloxy)-2,14-dioxo-3,15-diazatricyclo[13.3.0.0^4,6]octadec-7-ene-4-carbonyl]amide dihydrochloride]",pIC50,[1],4.52
same,pEC50,[2]; EC50 ranges,> 6.30
same,pEC50,[2]; read-out: EC50,~6.91
